Experimental data from publication PMC5312080 (mBio, 2017).
Converted amounts (≈) assume the structure as drawn. “And” between values parts separate entries of the source, which are not always exact repeats. Identical values can stand only once.

System: clinical drug-susceptible and drug-resistant M. tuberculosis strains
Test: microbe, parasite or virus in culture
Format: cell-based
Details: Mycobacterium tuberculosis

SMILES	MIC [µg/mL]
COc1ccc(-c2cc(NC(=O)c3ccc(F)cc3Cl)ccc2OC)cc1 [DG70, 2-chloro-N-(4',6-dimethoxy-[1,1'-biphenyl]-3-yl)-4-fluorobenzamide]	1.2 to 9.6 (≈ 3.11 to 24.9 µM)

Same assay, conditions: Mycobacterium tuberculosis, H37RV

SMILES	MIC90 [µg/mL]
NNC(=O)c1ccncc1 [INH, isoniazid]	0.05 (≈ 0.365 µM)

Same assay, conditions: Mycobacterium tuberculosis, H37RV; read-out: MIC90

SMILES	MIC90 [µg/mL]
COc1ccc(-c2cc(NC(=O)c3ccc(F)cc3Cl)ccc2OC)cc1 [DG70, 2-chloro-N-(4',6-dimethoxy-[1,1'-biphenyl]-3-yl)-4-fluorobenzamide]	4.8 (≈ 12.4 µM)

System: DG70-resistant mutants of H37Rv
Test: not given
Format: cell-based, Mycobacterium tuberculosis
Details: not given

SMILES	MIC in Mtb P3 V20A [µg/mL]	MIC in Mtb P7 F118L [µg/mL]	DG70 MIC90
O=C(Nc1ccc(O)c(-c2ccc(O)cc2)c1)c1ccc(F)cc1Cl [JSF-2950]	>40	>40	
COc1ccc(-c2cccc(NC(=O)c3ccc(F)cc3Cl)c2)cc1 [JSF-2907]	>80	>80	
COc1ccc(-c2cc(NC(=O)c3ccc(F)cc3Cl)ccc2OC)cc1 [DG70, 2-chloro-N-(4',6-dimethoxy-[1,1'-biphenyl]-3-yl)-4-fluorobenzamide]	>80	40 (≈ 104 µM)	>80 µg/mL and 40 µg/mL
COc1ccc(-c2cc(N(C)C(=O)c3ccc(F)cc3Cl)ccc2OC)cc1 [JSF-2949]	>40	>40	
COc1ccc(NC(=O)c2ccc(F)cc2Cl)cc1-c1ccccc1 [JSF-2971]	40 (≈ 112 µM)	40 (≈ 112 µM)	
COc1ccc(-c2cc(NC(=O)c3ccccc3)ccc2OC)cc1 [JSF-2912]	>40	>40	
COc1ccc(NC(=O)c2ccc(F)cc2Cl)cc1 [JSF-2926]	40 (≈ 143 µM)	40 (≈ 143 µM)	
COc1ccc(-c2cc(NCc3ccc(F)cc3Cl)ccc2OC)cc1 [JSF-2951]	>80	>80	
O=C(Nc1cccc(-c2ccccc2)c1)c1ccc(F)cc1Cl [JSF-2910]	>40	>40	
COc1ccc(-c2cc(NC(=O)c3ccc(F)cc3)ccc2OC)cc1 [JSF-2909]	>80	>80	
COc1ccc(-c2cc(NC(=O)c3ccccc3Cl)ccc2OC)cc1 [JSF-2908]	>40	>40	
